Test results: patent publication US20240115549A1, “TREATMENT OF MENTAL DISORDERS” (GH Research Ireland Limited, priority 2022, published 2024)
Entries after “also recorded” stand apart in the source; their conditions may differ.

What was measured:
human hepatocytes [1] = test: Metabolism of 5-MeO-DMT in human hepatocytes in suspension; type: in vitro ADME; conditions: 5-MeO-DMT free base 10 μM incubated up to 120 minutes
Experimental: All samples were stored at −80° C. (nominal) prior to analysis.
Appropriate blank and control samples were also analysed. […] (nominal).

human hepatocytes [2] = test: Metabolic stability in Hprel human hepatocyte co-culture; type: in vitro ADME; conditions: for Half-life / In vitro intrinsic clearance: human hepatocytes, 1 μM; for Predicted hepatic extraction ratio: human, Hprel HumanPool human hepatocyte co-culture; for Disappearance with stromal cell controls: stromal cells
Experimental: The incubations were performed using 1 and 10 μM initial concentrations and sampling at 0, 1, 2, 4, 8, 24, 48, and 72 hours (h) time points. The samples were analysed using UPLC/QE-orbitrap-MS.
The remaining LC/MS peak areas detected for test compounds after each incubation time point with Hprel co-culture assay, relative to corresponding 0 min incubation samples, are shown in the tables below.

[3] = LC-MS/MS of 5-MeO-DMT, bufotenine and 5-MIAA in breastmilk, serum and urine of a treated PPD patient; infant dose estimates
human plasma protein = test: Plasma binding of 5-MIAA; type: in vitro ADME
Experimental: Binding to human plasma protein was determined. Reported are the unbound fraction (fu) for three replicates as well as the mean unbound fraction, the standard deviation and the mean % recovery (Table 8).

[4] = 5 kg infant, three feeds of 250 ml
[5] = 1.0 hrs after last dose, second PPD patient, inhaled 5-MeO-DMT, LC-MS/MS
[6] = 2.5 hrs after last dose, second PPD patient, inhaled 5-MeO-DMT, LC-MS/MS
[7] = 8.5 hrs after last dose, second PPD patient, inhaled 5-MeO-DMT, LC-MS/MS
[8] = 120.0 hrs after last dose, second PPD patient, inhaled 5-MeO-DMT, LC-MS/MS
[9] = timepoint −24.0 hrs (pre-dosing), second PPD patient, inhaled 5-MeO-DMT 6 mg then 12 mg, LC-MS/MS
[10] = serum, 1.0 hrs after last dose, second PPD patient, inhaled 5-MeO-DMT, LC-MS/MS
[11] = urine, 2.5 hrs after last dose, second PPD patient, inhaled 5-MeO-DMT, LC-MS/MS

Compound: COc1ccc2[nH]cc(CC(=O)O)c2c1 [5-MIAA, 5-methoxyindole-3-acetic acid]
- Relative Proportion of compounds identified (human hepatocytes [1]): about 60%
- Relative Proportion of compounds identified (human hepatocytes [1]; listed as 5-Methoxyindole acetic acid (5-MIAA)): 61%
- Relative LC/MS peak area (human hepatocytes [2]; 1 μM Hepatocytes, 1 h): 98%
- Relative LC/MS peak area (human hepatocytes [2]; 1 μM Hepatocytes, 2 h): 100%
- Relative LC/MS peak area (human hepatocytes [2]; 1 μM Hepatocytes, 4 h): 99%
- Relative LC/MS peak area (human hepatocytes [2]; 1 μM Hepatocytes, 8 h): 95%
- Relative LC/MS peak area (human hepatocytes [2]; 1 μM Hepatocytes, 24 h): 99%
- Relative LC/MS peak area (human hepatocytes [2]; 1 μM Hepatocytes, 48 h): 88%
- Relative LC/MS peak area (human hepatocytes [2]; 1 μM Hepatocytes, 72 h): 82%
- Relative LC/MS peak area (human hepatocytes [2]; 1 μM Stromal cells, 4 h): 103%
- Relative LC/MS peak area (human hepatocytes [2]; 1 μM Stromal cells, 8 h): 107%
- Relative LC/MS peak area (human hepatocytes [2]; 1 μM Stromal cells, 24 h): 108%
- Relative LC/MS peak area (human hepatocytes [2]; 1 μM Stromal cells, 48 h): 111%
- Relative LC/MS peak area (human hepatocytes [2]; 1 μM Stromal cells, 72 h): 135%
- Relative LC/MS peak area (human hepatocytes [2]; 10 μM Hepatocytes, 1 h): 97%
- Relative LC/MS peak area (human hepatocytes [2]; 10 μM Hepatocytes, 2 h): 100%
- Relative LC/MS peak area (human hepatocytes [2]; 10 μM Hepatocytes, 4 h): 103%
- Relative LC/MS peak area (human hepatocytes [2]; 10 μM Hepatocytes, 8 h): 96%
- Relative LC/MS peak area (human hepatocytes [2]; 10 μM Hepatocytes, 24 h): 96%
- Relative LC/MS peak area (human hepatocytes [2]; 10 μM Hepatocytes, 48 h): 86%
- Relative LC/MS peak area (human hepatocytes [2]; 10 μM Hepatocytes, 72 h): 75%
- Relative LC/MS peak area (human hepatocytes [2]; 10 μM Stromal cells, 4 h): 101%
- Relative LC/MS peak area (human hepatocytes [2]; 10 μM Stromal cells, 8 h): 106%
- Relative LC/MS peak area (human hepatocytes [2]; 10 μM Stromal cells, 24 h): 97%
- Relative LC/MS peak area (human hepatocytes [2]; 10 μM Stromal cells, 48 h): 103%
- Relative LC/MS peak area (human hepatocytes [2]; 10 μM Stromal cells, 72 h): 115%
- Remaining abundance after 72 h (human hepatocytes [2]; hepatocytes, 1 and 10 μM): 75-82%
- Half-life (human hepatocytes [2]): 15 400 min
- In vitro intrinsic clearance (human hepatocytes [2]): 0.15 μl/min/million cells
- Predicted hepatic extraction ratio (human hepatocytes [2]): 2%
- Metabolic turnover (human hepatocytes [2]; in the presence of hepatocytes): low metabolic turnover
- Disappearance with stromal cell controls (human hepatocytes [2]): no disappearance
- DID per kg infant weight [3, 4]: 0.001377 mg/kg/day
- Total exposure of the infant (DID) [3, 4]: 0.006886 mg/day
- Concentration in breast milk ([3]; 1 hour after last dose (6 mg + 12 mg 5-MeO-DMT)): 13.9452 ng/mL
- Peak urine concentration relative to serum ([3]; 2.5 hours): approx. 127 times
- Concentration in breast milk ([3]; 2.5 hours after last dose): 13.2409 ng/mL
- Urine concentration ([3]; 2.5 hours after last dose): 12 980 501 pg/ml
- Concentration in breast milk ([3]; 8.5 hours after last dose): 0.3594 ng/mL
- Breastmilk concentration [3, 5]: 13945.2 pg/mL
- Breastmilk concentration [3, 6]: 13240.9 pg/mL
- Breastmilk concentration [3, 7]: 359.4 pg/mL
- Breastmilk concentration [3, 8]: BLQ
- Breastmilk concentration [3, 9]: BLQ
- concentration at 24 h ([3]; female, human, breast milk, inhaled): 0.0355 ng/mL
- concentration at 2.5 h ([3]; female, human, serum, inhaled): 102 ng/mL
- concentration at 24 h ([3]; female, human, serum, inhaled): 0.271 ng/mL
- concentration at 120 h ([3]; female, human, serum, inhaled): 0.0671 ng/mL
- concentration at 2.5 h ([3]; female, human, urine, inhaled): ~13000 ng/mL
- concentration at 8.5 h ([3]; female, human, urine, inhaled): 292 ng/mL
- concentration at 24 h ([3]; female, human, urine, inhaled): 18.6 ng/mL
- concentration at 120 h ([3]; female, human, urine, inhaled): 9.44 ng/mL
- Serum concentration [3, 10]: 263.092 ng/mL
- Urine concentration [3, 11]: 12980501 pg/mL
- Mean % Recovery (human plasma protein): 81.4%
- Mean fu (human plasma protein): 0.502
- Plasma binding (mean fraction unbound) (human plasma protein): ~50%
- Unbound fraction (fu), Replicate 1 (human plasma protein): 0.499
- Unbound fraction (fu), Replicate 2 (human plasma protein): 0.462
- Unbound fraction (fu), Replicate 3 (human plasma protein): 0.544

Compound: COc1ccc2[nH]cc(CC[N+](C)(C)[O-])c2c1 [5-MeO-DMT-N-oxide]
- Relative Proportion of compounds identified (human hepatocytes [1]): 1%

Compound: COc1ccc2[nH]cc(CCO)c2c1 [5-methoxytryptophol, 5-Methoxyindole-3-ethanol]
- Relative Proportion of compounds identified (human hepatocytes [1]): 25%
- Relative LC/MS peak area (human hepatocytes [2]; 1 μM Hepatocytes, 1 h): 79%
- Relative LC/MS peak area (human hepatocytes [2]; 1 μM Hepatocytes, 2 h): 57%
- Relative LC/MS peak area (human hepatocytes [2]; 1 μM Hepatocytes, 4 h): 33%
- Relative LC/MS peak area (human hepatocytes [2]; 1 μM Hepatocytes, 8 h): 10%
- Relative LC/MS peak area (human hepatocytes [2]; 1 μM Hepatocytes, 24 h): 0%
- Relative LC/MS peak area (human hepatocytes [2]; 1 μM Hepatocytes, 48 h): 0%
- Relative LC/MS peak area (human hepatocytes [2]; 1 μM Hepatocytes, 72 h): 0%
- Relative LC/MS peak area (human hepatocytes [2]; 1 μM Stromal cells, 4 h): 97%
- Relative LC/MS peak area (human hepatocytes [2]; 1 μM Stromal cells, 8 h): 107%
- Relative LC/MS peak area (human hepatocytes [2]; 1 μM Stromal cells, 24 h): 94%
- Relative LC/MS peak area (human hepatocytes [2]; 1 μM Stromal cells, 48 h): 102%
- Relative LC/MS peak area (human hepatocytes [2]; 1 μM Stromal cells, 72 h): 104%
- Relative LC/MS peak area (human hepatocytes [2]; 10 μM Hepatocytes, 1 h): 87%
- Relative LC/MS peak area (human hepatocytes [2]; 10 μM Hepatocytes, 2 h): 81%
- Relative LC/MS peak area (human hepatocytes [2]; 10 μM Hepatocytes, 4 h): 68%
- Relative LC/MS peak area (human hepatocytes [2]; 10 μM Hepatocytes, 8 h): 42%
- Relative LC/MS peak area (human hepatocytes [2]; 10 μM Hepatocytes, 24 h): 1%
- Relative LC/MS peak area (human hepatocytes [2]; 10 μM Hepatocytes, 48 h): 0%
- Relative LC/MS peak area (human hepatocytes [2]; 10 μM Hepatocytes, 72 h): 0%
- Relative LC/MS peak area (human hepatocytes [2]; 10 μM Stromal cells, 4 h): 99%
- Relative LC/MS peak area (human hepatocytes [2]; 10 μM Stromal cells, 8 h): 105%
- Relative LC/MS peak area (human hepatocytes [2]; 10 μM Stromal cells, 24 h): 86%
- Relative LC/MS peak area (human hepatocytes [2]; 10 μM Stromal cells, 48 h): 98%
- Relative LC/MS peak area (human hepatocytes [2]; 10 μM Stromal cells, 72 h): 104%
- Half-life (human hepatocytes [2]): 142 min
- In vitro intrinsic clearance (human hepatocytes [2]): 16.2 μl/min/million cells
- Predicted hepatic extraction ratio (human hepatocytes [2]): 67%
- Metabolic turnover (human hepatocytes [2]; in the presence of hepatocytes): high metabolic turnover
- Time to complete disappearance (human hepatocytes [2]; in the presence of hepatocytes): ≤ 24 h
- Disappearance with stromal cell controls (human hepatocytes [2]): no disappearance

Compound: CC(=O)CC(c1ccccc1)c1c(O)c2ccccc2oc1=O (centres unmarked) [Warfarin, reference compound]
- Mean % Recovery (human plasma protein): 78.1%
- Mean fu (human plasma protein): 0.0377
- Unbound fraction (fu), Replicate 1 (human plasma protein): 0.0418
- Unbound fraction (fu), Replicate 2 (human plasma protein): 0.0356
- Unbound fraction (fu), Replicate 3 (human plasma protein): 0.0358

Compound: CN(C)CCc1c[nH]c2ccc(O)cc12 [bufotenine]
- Relative Proportion of compounds identified (human hepatocytes [1]): 5%
- Detection in breastmilk ([3]; any time point): not detected; also recorded: absence
- Detection in serum ([3]; any time point): not detected
- Breastmilk concentration [3, 5]: BLQ
- Breastmilk concentration [3, 6]: BLQ
- Breastmilk concentration [3, 7]: BLQ
- Breastmilk concentration ([3]; 24.0 hrs after last dose, second PPD patient, inhaled 5-MeO-DMT, LC-MS/MS): BLQ
- Breastmilk concentration [3, 8]: BLQ
- Breastmilk concentration [3, 9]: BLQ
- Serum concentration [3, 10]: BLQ
- Serum concentration ([3]; serum, 2.5 hrs after last dose, second PPD patient, inhaled 5-MeO-DMT, LC-MS/MS): BLQ
- Serum concentration ([3]; serum, 24.0 hrs after last dose, second PPD patient, inhaled 5-MeO-DMT, LC-MS/MS): BLQ
- Serum concentration ([3]; serum, 120.0 hrs after last dose, second PPD patient, inhaled 5-MeO-DMT, LC-MS/MS): BLQ
- Serum concentration ([3]; serum, timepoint −24.0 hrs (pre-dosing), second PPD patient, inhaled 5-MeO-DMT 6 mg then 12 mg, LC-MS/MS): BLQ
- Urine concentration [3, 11]: 32.3 pg/mL
- Urine concentration ([3]; urine, 8.5 hrs after last dose, second PPD patient, inhaled 5-MeO-DMT, LC-MS/MS): BLQ
- Urine concentration ([3]; urine, 24.0 hrs after last dose, second PPD patient, inhaled 5-MeO-DMT, LC-MS/MS): BLQ
- Urine concentration ([3]; urine, 120.0 hrs after last dose, second PPD patient, inhaled 5-MeO-DMT, LC-MS/MS): BLQ
- Urine concentration ([3]; urine, timepoint −24.0 hrs (pre-dosing), second PPD patient, inhaled 5-MeO-DMT 6 mg then 12 mg, LC-MS/MS): BLQ
